Results taken from patent US20250215493A1, “NUCLEOTIDES WITH ENZYMATICALLY CLEAVABLE 3'-O-GLYCOSIDE BLOCKING GROUPS FOR SEQUENCING” (Illumina, Inc., priority 2023, published 2025).

How the values were obtained:
[1] = system: α-Mannosidase 92S, Bacteroides thetaiotaomicron; test: Cleavage of 3′-glycoside thymidine by glycosyl hydrolases (HPLC); format: biochemical; details: 100 mM HEPES pH 7.0, 2 mM CaCl2, 37° C.
Method: (§1) The cleavage of the 3′-glycoside moiety from 3′-(β)-glucopyranoside thymidine, 3′-(β)-xylopyranoside thymidine and 3′-(α)-mannopyranoside thymidine using glycosyl hydrolases was tested by incubating the nucleoside substrate (200 μM) with the enzyme (2 μM) in buffer. At set timepoints, 50 μL aliquots of the reaction solution were taken and quenched with 50 μL of either 0.1 M EDTA or […]. The aliquots were then analysed by reverse phase HPLC (YMC-Triart C18 Column, 12 nm, 5 μm, 250×4.6 mm column) using a gradient from 0% to 8% acetonitrile in 0.1 M TEAB over 25 minutes, monitoring the disappearance of the 3′-glycopyranoside thymidine substrate peak and the appearance of the thymidine product peak.

[2] = system: α-Mannosidase 92B, Bacteroides thetaiotaomicron; test: as above; format: biochemical; details: 100 mM HEPES pH 7.0, 2 mM CaCl2, 37° C.
Method: as §1

[3] = system: β-Glucosidase 1A, Thermus thermophilus; test: as above; format: biochemical; details: 100 mM sodium citrate pH 6.5, 50° C.; 200 μM substrate, 2 μM enzyme
Method: as §1

[4] = system: β-Glucosidase 3B, Cellvibrio japonicus; test: as above; format: biochemical; details: 37° C.
Method: as §1

[5] = system: β-Glucosidase 1A, Thermobifida fusca; test: as above; format: biochemical; details: 100 mM HEPES pH 7.0, 50° C.; 200 μM substrate, 2 μM enzyme
Method: as §1

[6] = system: Xylosidase 3A, Sulfolobus solfataricus; test: as above; format: biochemical; details: 100 mM MES pH 6.0, 50° C.
Method: as §1

[7] = system: Xylosidase 39A, Clostridium stercorarium; test: as above; format: biochemical; details: 100 mM MES pH 6.0, 5 mM CaCl2, 50° C.
Method: as §1

[8] = system: Xylosidase 43A, Thermobifida fusca; test: as above; format: biochemical; details: 100 mM sodium citrate pH 5.5, 50° C.
Method: as §1

Pol A (SBS polymerase) = test: Sequencing flowcell assay, loss of % T call signal on incorporation of unlabeled 3′ blocked dTTP; format: biochemical
Method: (§2) A further example examined whether cleavage of 3′-ABF is feasible on DNA clusters on the surface of a sequencing flow cell. To this end, a sequencing assay monitoring the loss and recovery of % T call signal as read-out was carried out using an Illumina NextSeq 2000 instrument with a P2 flow cell. FIG. 4A illustrates the sequencing assay workflow using loss and recovery of % T call signal as readout, including: (1) The % T call signal baseline based on a standard Illumina Green ffT (e.g., ffT-3′-AZM-LN3-AF550POPOso) is first established with a series of SBS cycles using standard SBS chemistry; (2) incorporation by Pol A (SBS polymerase) of unlabeled dTTP with a different 3′-block (i.e., 3′-ABF dTTP or 3′-AOM dTTP used as control) results in the loss of this signal; (3) the % T signal is only partially recovered to around 75% relative to the initial baseline in subsequent standard cycles as around 25% DNA clusters are blocked by the alternative 3′-block which is uncleaved under standard SBS chemistry conditions; (4) injection of the cleavage mix specifically removing this block (i.e., ABFase removing the 3′-ABF or Pd catalyst removing 3′-AOM for the control experiment) followed by standard cycles resulting in the full recovery of the signal. […]

C. japonicum ABFase = test: Sequencing flowcell assay, recovery of % T call signal after enzymatic cleavage from DNA clusters; format: biochemical; details: 30 minutes, 60° C., pH 5.5
Method: as §2

T. maritima GH51 ABFase = test: Enzymatic cleavage of 3′-ABF deoxythymidine by GH51 ABFase (HPLC); format: biochemical, Thermotoga maritima; details: 80° C., sodium phosphate pH 6.5; 200 μM substrate, 2 μM enzyme
Method: (§3) Candidate arabinofuranosidases (ABFases) were tested for hydrolysis of 3′-ABF. 3′-ABF deoxythymidine was preincubated in […] sodium citrate pH 5.5 or sodium phosphate pH 6.5 at designated temperatures for 5 minutes. Enzyme was added to the reaction so that the final reaction contained 200 μM substrate and 2 μM enzyme. At indicated time points, 50 μL aliquots were removed and quenched with 50 μL 0.1N NaOH prior to analysis by HPLC (YMC Triart C18, 250×4.5 mm, S-5 μm, 12 nm, 0.1M TEAB/100% Acetonitrile) to determine the percentage of enzymatically unblocked nucleotide (or % deprotection).
(§4) Various arabinofuranosidases (ABFases) included CAZy Glycoside Hydrolases family 51 (GH51) from Thermotoga maritima, Cellvibrio japonicus, Clostridium thermocellum, Bacillus subtilis, and Podosporina anserina. The molar ratio of enzyme to 3′-ABF deoxythymidine was 1:100 in all reaction mixes. The reaction using T. maritima ABFase was carried out at 80° C. with a sodium phosphate buffer to ensure a pH of 6.5. The reaction using C. japonicus ABFase was carried out at 37° C. with a sodium citrate buffer to ensure a pH of 5.5. The reaction using C. thermocellum ABFase was carried out at 65° C. with a sodium phosphate buffer to ensure a pH of 6.5. The reaction using B. subtilis ABFase was carried out at 60° C. with a sodium phosphate buffer to ensure a pH of 6.5. […]

[9] = 3′-ABF blocking group stability testing (staging in incorporation buffer, UPLC); format: physicochemical
Method: T Nucleoside was blocked with a 3′-O-α-L-arabinofuranoside (3′-ABF,
blocking groups. 1 mL of 3′ blocked T nucleosides at 0.1 mM were made in a solution of 50 mM glycine buffer (pH 9.9), 50 mM NaCl, and 1 mM EDTA. F
These solutions were incubated at 60° C. in a heating block for 1 month. Spontaneous cleavage of the 3′-ABF under incorporation conditions (50 mM Glycine pH 9.8 at 60° C.) was measured by staging 3′-ABF deoxythymine to evaluate the stability of 3′-ABF as a blocking group. At set time points, 40 μL aliquots were taken and analyzed by UPLC (conditions/column) to determine the percentage of blocked nucleotide remaining and the eventual formation of unblocked nucleotide.

C. japonicus GH51 ABFase = test: Enzymatic cleavage of 3′-ABF deoxythymidine by GH51 ABFase (HPLC); format: biochemical, Cellvibrio japonicus; details: 37° C., sodium citrate pH 5.5; 200 μM substrate, 2 μM enzyme
Method: as §3, §4

P. anserina GH51 ABFase = test: as above; format: biochemical, Podosporina anserina; details: 60° C., sodium citrate pH 5.5; 200 μM substrate, 2 μM enzyme
Method: as §3, §4

[10] = target: C. thermocellum GH51 ABFase (Acetivibrio thermocellus, UniProt A3DIH0); test: as above; format: biochemical, Clostridium thermocellum; details: 65° C., sodium phosphate pH 6.5; 200 μM substrate, 2 μM enzyme
Method: as §3, §4

B. subtilis GH51 ABFase = test: as above; format: biochemical, Bacillus subtilis; details: 60° C., sodium phosphate pH 6.5; 200 μM substrate, 2 μM enzyme
Method: as §3, §4

[11] = system: mutant DNA polymerase Pol A; test: Primer extension assay, incorporation into DNA (33P-labelled primer:template, PAGE); format: biochemical
Method: The incorporation of the 5′-triphosphate 3′-[(β)-D-glucopyranosyl]thymidine and 5′-triphosphate 3′-[(β)-D-xylopyranosyl]thymidine into DNA by a mutant DNA polymerase Pol A was tested using a primer extension assay. Briefly, a ^33P-labelled DNA primer:template (20 nM) was incubated with the DNA polymerase ([…]) and the nucleotide triphosphates (1 μM) in buffer (50 mM Glycine pH 9.6, 50 mM NaCl, 9 mM MgSO4, 1 mM EDTA) at 60° C. The rate was determined by calculating the percentage of incorporation compared to the initial primer template band and the incorporation results are shown in FIG. 6B.

[12] = 1 μM nucleotide, 50 mM Glycine pH 9.6, 60° C.

Chain of C. thermocellum GH51 ABFase (A3DIH0 whole entry): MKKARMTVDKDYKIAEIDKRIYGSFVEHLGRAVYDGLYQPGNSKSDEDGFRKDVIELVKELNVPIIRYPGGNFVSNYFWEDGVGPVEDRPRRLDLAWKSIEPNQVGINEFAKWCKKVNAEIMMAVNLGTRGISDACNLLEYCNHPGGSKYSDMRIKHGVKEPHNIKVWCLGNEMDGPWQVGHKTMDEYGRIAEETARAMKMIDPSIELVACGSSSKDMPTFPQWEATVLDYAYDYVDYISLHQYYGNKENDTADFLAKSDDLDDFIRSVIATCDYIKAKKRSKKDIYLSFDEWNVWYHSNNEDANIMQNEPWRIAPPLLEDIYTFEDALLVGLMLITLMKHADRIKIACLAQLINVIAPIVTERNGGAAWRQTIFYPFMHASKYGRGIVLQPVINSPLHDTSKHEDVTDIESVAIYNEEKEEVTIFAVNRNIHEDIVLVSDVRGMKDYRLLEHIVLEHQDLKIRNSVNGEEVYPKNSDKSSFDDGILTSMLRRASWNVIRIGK

Cc1cn([C@H]2CC(O[C@H]3OC(CO)[C@@H](O)C(O)C3O)[C@@H](CO)O2)c(=O)[nH]c1=O (stereo partly drawn) [3′-(α)-mannopyranoside thymidine, 3′-[(α)-D-mannopyranosyl]thymidine]
cleavage of the 3′-mannopyranoside group [1]: not observed | cleavage of the 3′-mannopyranoside group [2]: not observed

Cc1cn([C@H]2CC(O[C@@H]3OC(CO)[C@@H](O)C(O)C3O)[C@@H](CO)O2)c(=O)[nH]c1=O (stereo partly drawn) [3′-(β)-glucopyranoside thymidine, 3′-[(β)-D-glucopyranosyl]thymidine]
time to complete cleavage of the 3′-glucopyranoside group [3]: less than 2 minutes | time to complete cleavage of the 3′-glucopyranoside group ([4]; pH 6.5 (100 mM sodium citrate)): approximately 2 hours | time to complete cleavage of the 3′-glucopyranoside group ([4]; pH 7.5 (100 mM sodium phosphate)): approximately 2 hours | time to complete cleavage of the 3′-glucopyranoside group [5]: less than 2 minutes

Cc1cn([C@H]2CC(O[C@@H]3OC[C@@H](O)C(O)C3O)[C@@H](CO)O2)c(=O)[nH]c1=O (stereo partly drawn) [3′-(β)-xylopyranoside thymidine, 3′-[(β)-D-xylopyranosyl]thymidine]
cleavage of the 3′-xylopyranoside group [6]: observed | time to full conversion of the substrate [6]: > 22 h | cleavage of the 3′-xylopyranoside group [7]: observed | time to full conversion of the substrate [7]: > 22 h | cleavage of the 3′-xylopyranoside group [8]: observed | time to full conversion of the substrate [8]: > 22 h

Cc1cn([C@H]2C[C@H](O[C@@H]3O[C@@H](CO)[C@H](O)[C@H]3O)[C@@H](COP(=O)(O)OP(=O)(O)OP(=O)(O)O)O2)c(=O)[nH]c1=O [3′-ABF TTP, 3′-O-(α-L-arabinofuranosyl)-deoxythymidine-5′-triphosphate]
% T fluorescence signal upon incorporation of the unlabeled nucleotide (Pol A (SBS polymerase); NextSeq 2000, P2 flow cell): fully drops | % T fluorescence signal recovered when standard SBS cycles resume (Pol A (SBS polymerase); of the initial baseline, before enzymatic cleavage): around 75% | recovery of the initial % T fluorescence signal after enzymatic cleavage (C. japonicum ABFase): full recovery

Cc1cn([C@H]2C[C@H](O[C@@H]3O[C@@H](CO)[C@H](O)[C@H]3O)[C@@H](CO)O2)c(=O)[nH]c1=O [3′-ABF-dT, 3′-O-(α-L-arabinofuranosyl)-deoxythymidine]
observed reaction constant kobs (T. maritima GH51 ABFase): 0.15 s⁻¹ | percentage of remaining blocked nucleoside ([9]; after 31 days of staging at 60° C., 0.1 mM in 50 mM glycine buffer (pH 9.9), 50 mM NaCl, 1 mM EDTA): About 100% | stability of 3′-blocking group compared to AZM in solution ([9]; higher stability vs 3′-AZM-dT, 60° C., glycine buffer): 80-100 fold | observed reaction constant kobs (C. japonicus GH51 ABFase): 0.03 s⁻¹ | observed reaction constant kobs (P. anserina GH51 ABFase): 0.19 s⁻¹ | observed reaction constant kobs [10]: 0.01 s⁻¹ | observed reaction constant kobs (B. subtilis GH51 ABFase): 0.035 s⁻¹

Cc1cn([C@H]2CC(O[C@@H]3OC(CO)[C@@H](O)C(O)C3O)[C@@H](COP(=O)(O)OP(=O)(O)OP(=O)(O)O)O2)c(=O)[nH]c1=O (stereo partly drawn) [5′-triphosphate 3′-[(β)-D-glucopyranosyl]thymidine]
incorporation observed [11, 12]: no detectable incorporation | substrate for Pol A [11, 12]: is a poor substrate for Pol A

Cc1cn([C@H]2CC(O[C@@H]3OC[C@@H](O)C(O)C3O)[C@@H](COP(=O)(O)OP(=O)(O)OP(=O)(O)O)O2)c(=O)[nH]c1=O (stereo partly drawn) [5′-triphosphate 3′-[(β)-D-xylopyranosyl]thymidine]
substrate for Pol A [11, 12]: is a substrate for Pol A | rate of incorporation ([11]; compared to 5′-triphosphate 3′-[(α)-L-arabinofuranosyl]thymidine and 5′-triphosphate 3′-allyloxymethyl thymidine, 60° C., pH 9.6): slower
